Measurements reported in US20130012432A1, “Peptides for Treatment of Obesity” (Novo Nordisk A/S, priority 2010, published 2013).
Converted amounts (≈) assume the structure as drawn. Positions of bridges follow the written chain, without caps; N, C: chain ends. Non-standard residues stand in square brackets, D forms with d. Residues, ends and D or L forms follow the SMILES beside them. Groups on a side chain read outwards from the residue. *: point of attachment. Palmitoyl(16-(5-tetrazolyl)) = O=C(CCCCCCCCCCCCCCCc1nnn[nH]1)*; Lys(CH2CO2H)2 = N[C@@H](CCCCN(CC(=O)O)CC(=O)O)C(=O)O; X1 = O=C(O)CCCCCCCCCCCCCCCCC(=O)NCCOCCOCCN*; C17 diacid = O=C(O)CCCCCCCCCCCCCCCC(=O)*; C16 diacid = O=C(O)CCCCCCCCCCCCCCC(=O)*; Orn = NCCC[C@H](N)C(=O)O; Dab = NCC[C@H](N)C(=O)O; AEEA = NCCOCCOCC(=O)O

How the values were obtained:
physchem = test: physchem
Protocol: From a stock solution in vehicle, either H2O or 10 mM phosphate, containing 1 mg (as weighed) compound per ml, 8-11 aliquots are withdrawn and pH-adjusted individually with HCl/NaOH, to cover the whole pH range.

MC1 receptor = MC1 receptor (Homo sapiens, UniProt Q01726); test: biochemical
Chain of MC1 receptor (Q01726 whole entry): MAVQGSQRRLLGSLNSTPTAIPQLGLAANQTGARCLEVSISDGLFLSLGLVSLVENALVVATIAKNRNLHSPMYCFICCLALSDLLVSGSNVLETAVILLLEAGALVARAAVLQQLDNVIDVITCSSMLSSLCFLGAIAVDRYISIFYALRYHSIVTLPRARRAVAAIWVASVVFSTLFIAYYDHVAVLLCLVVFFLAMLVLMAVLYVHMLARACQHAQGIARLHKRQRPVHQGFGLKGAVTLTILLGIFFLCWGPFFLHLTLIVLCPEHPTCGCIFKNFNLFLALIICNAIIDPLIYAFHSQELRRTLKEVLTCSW
Protocol: Assay (IV)—Melanocortin Receptor 1 (MC1) Binding Assay
The MC1 receptor binding assay was performed on BHK cell membranes stably expressing the MC1 receptor. The assay was performed in a total volume of 250 μl: 25 μl of ^125NDP-α-MSH (22 pM in final concentration), 25 μl of test compound/control and 200 μl of cell membrane (25 μg/ml). Test compounds were dissolved in DMSO. Radioactively labeled ligand, membranes and test compounds were diluted in buffer: 25 mM HEPES, pH 7.4, 0.1 mM CaCl2, 1 mM MgSO4, 1 mM EDTA, 0.1% HSA and 0.005% Tween™ 20. Alternatively, HSA may be substituted with ovalbumin. The samples were incubated at 30° C. for 90 min. in Costar round-bottom microtiter plates. Incubation was terminated by filtration on a Packard harvester filtermate. Rapid filtration through Packard Unifilter-96 GF/B filters pre-treated with polyetylenimine (PerkinElmer 6005277). The filters were washed with ice-cold 0.9% NaCl 8-10 times. The plates were air-dried at app. 55° C. for 30 min, and 50 μl Microscint 0 (Packard, cat. No. 6013616) was added to each well. The plates were counted in a Topcounter (1 min/well).
The data were analysed by non-linear regression analysis of binding curves, using the Windows™ program GraphPad™ Prism (GraphPad Software, USA).

SMILES	solubility (physchem; pH 6.6, Solubility Conc.)	solubility (physchem; pH 6.7, Solubility Conc.)	solubility (physchem; pH 7.4, Solubility Conc.)	solubility (physchem; pH 7.6, Solubility Conc.)	solubility (physchem; pH 8, Solubility Conc.)	Ki (MC1 receptor)	solubility (physchem; pH 7.3, Solubility Conc.)	solubility (physchem; pH 7.7, Solubility Conc.)	solubility (physchem; pH 7.9, Solubility Conc.)	solubility (physchem; pH 6, Solubility Conc.)	solubility (physchem; pH 6.4, Solubility Conc.)	solubility (physchem; pH 7, Solubility Conc.)	also measured
CC(=O)N[C@H]1CCCCNC(=O)CC[C@@H](C(=O)N2CCC[C@H]2C(=O)N2CCC[C@H]2C(=O)N[C@@H](Cc2c[nH]cn2)C(=O)N[C@@H](CCC(=O)O)C(=O)N[C@@H](CCCCN(CC(=O)O)CC(=O)O)C(=O)N[C@@H](CCCCNC(=O)COCCOCCNC(=O)CCCCCCCCCCCCCCCC(=O)O)C(N)=O)NC(=O)[C@H](Cc2c[nH]c3ccccc23)NC(=O)[C@H](CCCNC(=N)N)NC(=O)[C@@H](Cc2ccccc2)NC(=O)[C@H](Cc2c[nH]cn2)NC1=O [Example 7, Ac-c[Lys-His-D-Phe-Arg-Trp-Glu]-Pro-Pro-His-Glu-Lys(biscarboxymethyl)-Lys({2-[2-(16-carboxyhexadecanoylamino)ethoxy]ethoxy}acetyl)-NH2] (Ac-KH[dF]RWEPPHE[Lys(CH2CO2H)2]K([AEEA-C17 diacid])-NH2; lactam 1-6)	295 µM (≈ 645 µg/mL)	408 µM (≈ 892 µg/mL)	438 µM (≈ 957 µg/mL)	448 µM (≈ 979 µg/mL)	436 µM (≈ 953 µg/mL)	> 10 µM							solubility (physchem; pH 5.8, Solubility Conc.): 121 µM (≈ 264 µg/mL); solubility (physchem; pH 6.3, Solubility Conc.): 173 µM (≈ 378 µg/mL); solubility (physchem; pH 6.9, Solubility Conc.): 434 µM (≈ 949 µg/mL); solubility (physchem; pH 7.2, Solubility Conc.): 417 µM (≈ 911 µg/mL)
CC(=O)N[C@H]1CCNC(=O)C[C@@H](C(=O)N2CCC[C@H]2C(=O)N2CCC[C@H]2C(=O)N[C@@H](CCCNC(=N)N)C(=O)N[C@@H](CCC(=O)O)C(=O)N[C@@H](CCCCN(CC(=O)O)CC(=O)O)C(=O)N[C@@H](CO)C(=O)N[C@@H](CO)C(=O)NCCOCCOCCNC(=O)CCCCCCCCCCCCCCCCC(=O)O)NC(=O)[C@H](Cc2c[nH]c3ccccc23)NC(=O)[C@H](CCCNC(=N)N)NC(=O)[C@@H](Cc2ccccc2)NC(=O)[C@H](Cc2c[nH]cn2)NC1=O [Example 9, Ac-c[Dab-His-D-Phe-Arg-Trp-Asp]-Pro-Pro-Arg-Glu-Lys(biscarboxymethyl)-Ser-Ser-NH(2-{2-[2-(17-carboxyheptadecanoylamino)ethoxy]ethoxy}ethyl)] (Ac-[Dab]H[dF]RWDPPRE[Lys(CH2CO2H)2]SS-X1; lactam 1-6)	79 µM (≈ 174 µg/mL)		183 µM (≈ 404 µg/mL)			> 10 µM	158 µM (≈ 349 µg/mL)	242 µM (≈ 534 µg/mL)	259 µM (≈ 572 µg/mL)				solubility (physchem; pH 4.7, Solubility Conc.): 26 µM (≈ 57.4 µg/mL); solubility (physchem; pH 5.2, Solubility Conc.): 22 µM (≈ 48.6 µg/mL); solubility (physchem; pH 5.3, Solubility Conc.): 40 µM (≈ 88.3 µg/mL); solubility (physchem; pH 8.2, Solubility Conc.): 280 µM (≈ 618 µg/mL)
CC(=O)N[C@H]1CCCNC(=O)C[C@@H](C(=O)N2CCC[C@H]2C(=O)N2CCC[C@H]2C(=O)N[C@@H](Cc2c[nH]cn2)C(=O)N[C@@H](CCC(=O)O)C(=O)N[C@@H](CCCCN(CC(=O)O)CC(=O)O)C(=O)N[C@@H](CCCCNC(=O)COCCOCCNC(=O)CCCCCCCCCCCCCCCc2nnn[nH]2)C(N)=O)NC(=O)[C@H](Cc2c[nH]c3ccccc23)NC(=O)[C@H](CCCNC(=N)N)NC(=O)[C@@H](Cc2ccccc2)NC(=O)[C@H](Cc2c[nH]cn2)NC1=O [Example 10, Ac-c[Orn-His-D-Phe-Arg-Trp-Asp]-Pro-Pro-His-Glu-Lys(biscarboxymethyl)-Lys[(2-{2-[16-(tetrazol-5-yl)hexadecanoylamino]ethoxy}ethoxy)acetyl]-NH2] (Ac-[Orn]H[dF]RWDPPHE[Lys(CH2CO2H)2]K([AEEA-Palmitoyl(16-(5-tetrazolyl))])-NH2; lactam 1-6)	287 µM (≈ 626 µg/mL)	514 µM (≈ 1120 µg/mL)	516 µM (≈ 1130 µg/mL)		531 µM (≈ 1160 µg/mL)	> 10 µM	517 µM (≈ 1130 µg/mL)	521 µM (≈ 1140 µg/mL)		35 µM (≈ 76.4 µg/mL)	88 µM (≈ 192 µg/mL)	517 µM (≈ 1130 µg/mL)	
CC(=O)N[C@H]1CCCCNC(=O)C[C@@H](C(=O)N2CCC[C@H]2C(=O)N2CCC[C@H]2C(=O)N[C@@H](CCCNC(=N)N)C(=O)N[C@@H](CC(=O)O)C(=O)N[C@@H](CCCCN(CC(=O)O)CC(=O)O)C(=O)N[C@@H](CCCCNC(=O)COCCOCCNC(=O)CCCCCCCCCCCCCCCc2nnn[nH]2)C(N)=O)NC(=O)[C@H](Cc2c[nH]c3ccccc23)NC(=O)[C@H](CCCNC(=N)N)NC(=O)[C@@H](Cc2ccccc2)NC(=O)[C@H](Cc2c[nH]cn2)NC1=O [Example 11, Ac-c[Lys-His-D-Phe-Arg-Trp-Asp]-Pro-Pro-Arg-Asp-Lys(biscarboxymethyl)-Lys[(2-{2-[16-(tetrazol-5-yl)hexadecanoylamino]ethoxy}ethoxy)acetyl]-NH2] (Ac-KH[dF]RWDPPRD[Lys(CH2CO2H)2]K([AEEA-Palmitoyl(16-(5-tetrazolyl))])-NH2; lactam 1-6)				472 µM (≈ 1040 µg/mL)		> 10 µM	479 µM (≈ 1050 µg/mL)			25 µM (≈ 55 µg/mL)	36 µM (≈ 79.2 µg/mL)	147 µM (≈ 323 µg/mL)	solubility (physchem; pH 4.8, Solubility Conc.): 51 µM (≈ 112 µg/mL); solubility (physchem; pH 5.3, Solubility Conc.): 29 µM (≈ 63.8 µg/mL); solubility (physchem; pH 7.2, Solubility Conc.): 364 µM (≈ 801 µg/mL); solubility (physchem; pH 7.8, Solubility Conc.): 479 µM (≈ 1050 µg/mL)
CC(=O)N[C@H]1CCC(=O)NCCC[C@@H](C(=O)N2CCC[C@H]2C(=O)N2CCC[C@H]2C(=O)N[C@@H](CC(=O)O)C(=O)N[C@@H](CCCCN(CC(=O)O)CC(=O)O)C(=O)N[C@@H](CCCCNC(=O)COCCOCCNC(=O)CCCCCCCCCCCCCCC(=O)O)C(N)=O)NC(=O)[C@H](Cc2c[nH]c3ccccc23)NC(=O)[C@H](CCCNC(=N)N)NC(=O)[C@@H](Cc2ccccc2)NC(=O)[C@H](Cc2c[nH]cn2)NC1=O [Example 13, Ac-c[Glu-His-D-Phe-Arg-Trp-Orn]-Pro-Pro-Asp-Lys(biscarboxymethyl)-Lys({2-[2-(15-carboxypentadecanoylamino)ethoxy]ethoxy}acetyl)-NH2] (Ac-EH[dF]RW[Orn]PPD[Lys(CH2CO2H)2]K([AEEA-C16 diacid])-NH2; lactam 1-6)						> 10 µM	467 µM (≈ 937 µg/mL)	472 µM (≈ 947 µg/mL)	493 µM (≈ 989 µg/mL)				solubility (physchem; pH 5.5, Solubility Conc.): 348 µM (≈ 698 µg/mL); solubility (physchem; pH 5.7, Solubility Conc.): 494 µM (≈ 991 µg/mL); solubility (physchem; pH 6.1, Solubility Conc.): 473 µM (≈ 949 µg/mL); solubility (physchem; pH 6.5, Solubility Conc.): 469 µM (≈ 941 µg/mL); solubility (physchem; pH 6.8, Solubility Conc.): 459 µM (≈ 921 µg/mL); solubility (physchem; pH 7.1, Solubility Conc.): 506 µM (≈ 1020 µg/mL)
CC(=O)N[C@H]1CCNC(=O)C[C@@H](C(=O)N2CCC[C@H]2C(=O)N2CCC[C@H]2C(=O)N[C@@H](CCCNC(=N)N)C(=O)N[C@@H](CCC(=O)O)C(=O)N[C@@H](CCCCN(CC(=O)O)CC(=O)O)C(=O)N[C@@H](CCCCNC(=O)COCCOCCNC(=O)CCCCCCCCCCCCCCCc2nnn[nH]2)C(N)=O)NC(=O)[C@H](Cc2c[nH]c3ccccc23)NC(=O)[C@H](CCCNC(=N)N)NC(=O)[C@@H](Cc2ccccc2)NC(=O)[C@H](Cc2c[nH]cn2)NC1=O [Example 15, Ac-c[Dab-His-D-Phe-Arg-Trp-Asp]-Pro-Pro-Arg-Glu-Lys(biscarboxymethyl)-Lys[(2-{2-[16-(tetrazol-5-yl)hexadecanoylamino]ethoxy}ethoxy)acetyl]-NH2] (Ac-[Dab]H[dF]RWDPPRE[Lys(CH2CO2H)2]K([AEEA-Palmitoyl(16-(5-tetrazolyl))])-NH2; lactam 1-6)			445 µM (≈ 973 µg/mL)		417 µM (≈ 912 µg/mL)	> 10 µM	395 µM (≈ 864 µg/mL)	461 µM (≈ 1010 µg/mL)					solubility (physchem; pH 5, Solubility Conc.): 49 µM (≈ 107 µg/mL); solubility (physchem; pH 6.1, Solubility Conc.): 26 µM (≈ 56.9 µg/mL); solubility (physchem; pH 6.8, Solubility Conc.): 60 µM (≈ 131 µg/mL); solubility (physchem; pH 7.1, Solubility Conc.): 147 µM (≈ 321 µg/mL); solubility (physchem; pH 7.8, Solubility Conc.): 441 µM (≈ 964 µg/mL)
CC(=O)N[C@H]1CCCNC(=O)CC[C@@H](C(=O)N2CCC[C@H]2C(=O)N[C@@H](CO)C(=O)N[C@@H](CCCCN)C(=O)N[C@@H](CCC(=O)O)C(=O)N[C@@H](CCC(=O)O)C(=O)N[C@@H](CO)C(=O)N[C@@H](CO)C(=O)N[C@@H](CCC(=O)O)C(=O)N[C@@H](CCCCNC(=O)COCCOCCNC(=O)CCCCCCCCCCCCCCCC(=O)O)C(N)=O)NC(=O)[C@H](Cc2c[nH]c3ccccc23)NC(=O)[C@H](CCCNC(=N)N)NC(=O)[C@@H](Cc2ccccc2)NC(=O)[C@H](Cc2c[nH]cn2)NC1=O [Example 20] (Ac-[Orn]H[dF]RWEPSKEESSEK([AEEA-C17 diacid])-NH2; lactam 1-6)		416 µM (≈ 974 µg/mL)		429 µM (≈ 1000 µg/mL)		> 10 µM	433 µM (≈ 1010 µg/mL)		398 µM (≈ 932 µg/mL)	192 µM (≈ 449 µg/mL)	410 µM (≈ 960 µg/mL)	420 µM (≈ 983 µg/mL)	solubility (physchem; pH 6.3, Solubility Conc.): 399 µM (≈ 934 µg/mL); solubility (physchem; pH 8.2, Solubility Conc.): 439 µM (≈ 1030 µg/mL)
